Bridge positions count the residues as written; N and C are the ends. Ends that are not written are not given here. Peptide text beside a SMILES is read from it. I, II: the chains in the order shown. * marks the point of attachment. X1 = NC(=O)CC[C@H](NC(=O)[C@@H](N)CS*)C(=O)N[C@@H](CCC(=O)O)C(=O)O
Tests used:
porcine pepsin = target: T1, porcine pepsin (Sus scrofa, UniProt P00791); test: In vitro simulated gastric digestion (G60); assay type: in vitro ADME; settings: simulated gastric fluid 35 mM NaCl pH 2, porcine pepsin enzyme/substrate 1:20 w/w, 37 °C, 60 min; UHPLC-HRMS extracted ion chromatogram, 20 ppm window, semi-quantified; triplicate aliquots
T1 construct: purchased Sigma-Aldrich (Madrid, Spain)
T1 sequence (P00791 60-385): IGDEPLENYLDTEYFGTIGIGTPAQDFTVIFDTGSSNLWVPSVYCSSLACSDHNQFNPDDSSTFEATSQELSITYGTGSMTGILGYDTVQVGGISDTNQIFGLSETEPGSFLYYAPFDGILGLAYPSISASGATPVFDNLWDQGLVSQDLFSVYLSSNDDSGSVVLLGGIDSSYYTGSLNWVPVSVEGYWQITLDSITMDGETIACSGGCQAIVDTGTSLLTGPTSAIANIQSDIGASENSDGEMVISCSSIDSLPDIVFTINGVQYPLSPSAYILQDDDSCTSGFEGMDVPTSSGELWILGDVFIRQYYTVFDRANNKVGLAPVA
Protocol: For the in vitro simulated peptide GI digestion, a two-stage hydrolysis process was carried out according to Martos et al.. […] was dissolved in simulated gastric fluid (35 mM NaCl at pH 2 for 15 min) and posteriorly subjected to digestion by porcine pepsin (E.C. 3.4.23.1, 3440 units/mg) at an enzyme/substrate ratio of 1: 20 w/w at 37 °C for 60 min. Gastric digestion with pepsin was stopped by adding 1 M NaHCO3 and pH was adjusted to 7.0 with NaOH 1 M (final protein concentration of 5 mg/mL). Aliquots of this gastric digest were collected (G60) and stored at −20 °C until analysis. Duodenal digestions were performed by using, as the starting material, the obtained gastric digests, with the addition of 1 M CaCl2, 0.25 M bis-Tris pH 6.5, 0.25 M bis-Tris pH 6.5, and a 0.125 M bile salts mixture containing equimolar quantities of sodium taurocholate and glycodeoxycholic acid. Posteriorly, the duodenal enzymes trypsin (EC 232-650-8, 10100 BAEE units/mg protein), α-chymotrypsin (EC 232-671-2; 55 units/mg protein), porcine pancreatic lipase (EC 232-619-9) and colipase (EC 259-490-1), prepared in 35 mM NaCl adjusted to pH 7, were added to the solution. Duodenal digestion was carried out at pH 7, 37 °C during 60 (D60). Then, enzymes were inactivated by heating at 95 °C for 10 min in a water bath, followed by cooling to room temperature. Triplicates of aliquots at each time point were collected and stored at −20 °C until analysis.
(§1) Samples obtained from in vitro peptide simulated digestion and Caco-2 monolayers were diluted 10 times with water (0.1% FA) and centrifuged (15,000 rpm, 15 min, 4 °C). Supernatants were directly analyzed by UHPLC-HRMS to avoid the loss of polar peptide fragments. Extensive clean-up or pre-concentration procedures were not necessary due to the high concentration of peptide and low matrix complexity than plasma samples.
(§2) The obtained purified solutions from plasma and peptide digests G60 and D60 and from AP and BL chambers in Caco-2 experiment were analyzed using a UHPLC 1290 Infinity II Series coupled to a QqQ 6490 Series (Agilent Technologies, Santa Clara, CA, USA) for tandem mass experiments or a qTOF 6550 Series (Agilent Technologies) for high-resolution mass spectrometry experiments. Chromatographic separation of peptide or their fragments were performed using a Kinetex 2.6 µm EVO C18 column (150 × 2.1 mm, […]) from (Phenomenex, Torrance, USA) as stationary phase and water containing 0.1% formic acid (solvent A) and acetonitrile (solvent B) as mobile phase. The separation was performed in gradient elution as follows: isocratic; 0–0.5 min, 2 % B; 0.5–1 min, 2–6% B; 1–5 min, 6–15% B; 5–6 min, 15–35% B; 6–10 min, 35–98% B; 10–12 min, 98% B isocratic; 12–12.10, 98–2% B. For all runs, 10 μL of the sample (4 °C) was injected, and the flow rate was 0.350 mL/min and the column temperature was 25 °C.
(§3) For in vitro simulated digestion experiments and Caco-2 monolayer samples, qTOF instrument was used to investigate the presence of unknown peptide fragments and previously in silico predicted peptide fragments by means of its accurate mass. Peptide and its fragments were semi-quantified using the chromatographic peak area observed in the extracted ion chromatograms using a 20 ppm mass window.

Caco-2 cell monolayers = test: Transepithelial transport through Caco-2 monolayer; assay type: in vitro ADME; settings: 21 days, TEER > 200 Ω/cm^2, gastric digest G60 added to apical chamber, AP to BL, 1 h, 37 °C, HBSS, content in basolateral chamber in comparison to apical chamber, UHPLC-HRMS, triplicates
Protocol: Caco-2 cells were obtained from Sigma-Aldrich and were grown Dulbecco’s modified minimum essential medium (DMEM), supplemented with 20% fetal bovine serum (FBS), […] L-glutamine, 100 U/mL penicillin and 100 μg/mL streptomycin at 37 °C in and 5% CO2. Cells were seeded onto Transwell inserts permeable membrane support (0.4 µm pore, 24 mm diameter, 4.7 cm^2 grown surface from Merck Co., Bedford, MA, USA) placed in six-well plates. The seeding density was 12,000 cell/cm^2. The medium was replaced every 2–3 days and cells were growing for 21 days. On the 21st day of the procedure, the integrity of the Caco-2 monolayer was assessed by the measurement of transepithelial electrical resistance (TEER) using a Millicell ERS-2 voltammeter (EMD Millipore, Darmstadt, Germany) selecting the ones with TEER values higher than 200 Ω/cm^2.
For the transport study, Caco-2 cells, maintained in DMEM, were gently rinsed with Hank’s balanced salt solution (HBSS) and equilibrated for 20 min at 37 °C prior to the transport study. Then, it was evaluated the transepithelial transport of the peptide […] (1 mM) dissolved in HBSS and the digests obtained in the in vitro simulated digestion (G60 and D60). […] or the peptide digests G60 and D60 were added to the apical (AP) chamber and were incubated for 1 h at 37 °C. After this time, triplicates of the AP chamber content and the basolateral (BL) chamber content were taken and stored at −80 °C until ultra-high performance liquid chromatography-high resolution mass spectrometry (UHPLC-HRMS) analyses.
as §1, §2, §3

[1] = tested on: spontaneously hypertensive rats; test: Systolic blood pressure in SHR with or without Naloxone (tail-cuff); assay type: in vivo, rat; settings: 50 mg/kg bw oral, Naloxone 3 mg/kg bw or saline, 6 h post-administration, n = 6
Protocol: Male, 17–20-week-old, SHR, weighing 286 ± 4 g were used in this study. All these animals were obtained from Charles River Laboratories Spain. The SHR were housed at a temperature of 23 °C with 12 h light/dark cycles and had free access to tap water and a standard diet (A04 Panlab). Before the experiments, rats were submitted to a training period of 10 days to guarantee the reliability of the measurements. To evaluate if […] presented an opioid-mediated effect, SHR received via subcutaneous 100 µL of Naloxone (3 mg/kg bw), and afterward a single oral dose (1 mL) of […] (10 mg/kg bw). Additionally, water, Captopril (50 mg/kg bw), known antihypertensive drug, and chicken foot hydrolysate Hpp11 (55 mg/kg bw), were administered as controls. Captopril and Hpp11 can inhibit ACE in vivo. […] Systolic blood pressure (SBP) was recorded in the rats by the tail-cuff method before and 2, 4, and 6 h post-administration. […]
Results from transepithelial transport studies are presented as means ± standard error means (SEM). […] The results for the experiments investigating the participation of opioid receptors in the […], Captopril and Hpp11 antihypertensive effect were expressed as the mean ± SEM of six animals per group (heterogeneity was tested by Levene’s test) and were analyzed by one-way ANOVA (Tukey’s test) using IBM SPSS Statistics 20.0 software. […]

[2] = peptides derived from Manchego cheese; ref Ruiz et al.; cited from earlier work
Protocol: Simulated in vitro gastrointestinal digestion model was used to investigate the releasing of the amino acid sequences previously predicted in the in silico approach. The peptide was sequentially digested under physiological conditions and the identification of amino acid sequences in samples obtained from both gastric and intestinal digestion were performed by UHPLC-HRMS (Table 2). When the results obtained by the in silico approach and in vitro approach were compared, it was observed that only two of the fourteen predicted peptide fragments from the in silico approach were identified in the i ...

Caco-2 monolayer = settings: cited from earlier work
Protocol: To verify the lack of absorption of the peptide or their resultant fragments in the GI tract an additional study using Caco-2 cells was carried out. The native peptide […] and the samples collected after the simulated gastric and duodenal digestions (G60 and D60, respectively) were incubated in Caco-2 monolayer for 1 h. The peptide and its resultant fragments were identified in the AP chamber from G60 samples, however, only 0.10–0.25% were transported to the BL chamber (Table 3). Therefore, the presence of native […] in the AP chamber after 1 h of incubation and the absence of the ...

opioid receptors = settings: non-selective opioid receptor antagonist Naloxone; cited from earlier work
Text: However, some bioactive peptides might mediate their physiological effects through its binding to receptors present in the intestinal wall, implying that their absorption is not required. […] These opioid-like peptides are atypical opioid ligands that are released from the hydrolysis of food and present N-terminal sequences that are different fro ...

Molecule	Area G60 (chromatographic peak area) (porcine pepsin)	G60 % Transport (Caco-2 cell monolayers) [%]	other results
CC(C)[C@H](NC(=O)[C@H](C)N)C(=O)N[C@@H](Cc1ccccc1)C(=O)N[C@@H](CCC(N)=O)C(=O)N[C@@H](Cc1c[nH]cn1)C(=O)N[C@@H](CC(N)=O)C(=O)N[C@@H](CSSC[C@H](N)C(=O)N[C@@H](CCC(N)=O)C(=O)N[C@@H](CCC(=O)O)C(=O)O)C(=O)N[C@@H](CCC(N)=O)C(=O)N[C@@H](CCC(=O)O)C(=O)O (H-AVFQHNC(X1)QE-OH)	93,694	0.15	
CC(C)[C@H](NC(=O)[C@H](C)N)C(=O)N[C@@H](Cc1ccccc1)C(=O)N[C@@H](CCC(N)=O)C(=O)N[C@@H](Cc1c[nH]cn1)C(=O)N[C@@H](CC(N)=O)C(=O)N[C@@H](CSSC[C@H](NC(=O)[C@H](CC(N)=O)NC(=O)[C@H](Cc1c[nH]cn1)NC(=O)[C@H](CCC(N)=O)NC(=O)[C@H](Cc1ccccc1)NC(=O)[C@@H](NC(=O)[C@H](C)N)C(C)C)C(=O)N[C@@H](CCC(N)=O)C(=O)N[C@@H](CCC(=O)O)C(=O)O)C(=O)N[C@@H](CCC(N)=O)C(=O)N[C@@H](CCC(=O)O)C(=O)O (I: H-AVFQHNCQE-OH / II: H-AVFQHNCQE-OH; disulfide I:7-II:7)	605,812	0.11	
CC(C)[C@H](NC(=O)[C@H](C)N)C(=O)N[C@@H](Cc1ccccc1)C(=O)N[C@@H](CCC(N)=O)C(=O)N[C@@H](Cc1c[nH]cn1)C(=O)N[C@@H](CC(N)=O)C(=O)N[C@@H](CSSC[C@H](NC(=O)[C@H](CC(N)=O)NC(=O)[C@H](Cc1c[nH]cn1)NC(=O)[C@@H](N)CCC(N)=O)C(=O)N[C@@H](CCC(N)=O)C(=O)N[C@@H](CCC(=O)O)C(=O)O)C(=O)N[C@@H](CCC(N)=O)C(=O)N[C@@H](CCC(=O)O)C(=O)O (I: H-AVFQHNCQE-OH / II: H-QHNCQE-OH; disulfide I:7-II:4)	136,056	0.15	
CC(C)[C@H](NC(=O)[C@H](C)N)C(=O)N[C@@H](Cc1ccccc1)C(=O)O [AVF] (H-Ala-Val-Phe-OH)	200,712	0.15	
C[C@H](CS)C(=O)N1CCC[C@H]1C(=O)O [Captopril]			BP reduction in naloxone-treated and saline-treated rats [1]: able to reduce BP in rats treated with Naloxone and in rats treated with saline
AVFQH [AVFQH]	155,533	0.17	
AVFQHN [AVFQHN]	685,482	0.10	
AVFQHNC [AVFQHNC]	220,051	0.60	
KKYNVPQL [peptide derived from Manchego cheese]			Resistance to GI digestion [2]: resistance to GI digestion
QHNCQE [QHNCQE]	288,536		
RADHP [antihypertensive peptide reported by Miguel et al]			Transport through Caco-2 monolayer (Caco-2 monolayer): lack of transported through Caco-2 monolayer
VRYL [peptide derived from Manchego cheese]			Resistance to GI digestion [2]: resistance to GI digestion
YGLF [α-lactorphin, milk-derived opioid-like antihypertensive peptide]			BP-lowering effect after administration of Naloxone (opioid receptors): abolished
